Measured values published in US6573275B1, “Bicyclic amines” (Syngenta Limited, priority 1995, dated 2003).

Tested on: peach aphid (Myzus persicae)
Assay: Insecticidal test against peach aphid, infested Chinese cabbage leaves sprayed
Type: in vivo
Details: peach aphid (Myzus persicae) on Chinese cabbage leaves, sprayed with 500 ppm composition unless otherwise stated, mortality assessed after 3 days
Protocol: This Example illustrates the insecticidal properties of the compounds of Formula I. The activity of the compounds of Formula I was determined using a variety of pests. The pests were treated with a liquid composition containing 500 parts per million (ppm) by weight of the compound unless otherwise stated. The compositions were made by dissolving the compound in acetone and ethanol (50:50) mixture and diluting the solutions with water containing 0.05% by weight of a wetting agent sold under the trade name “SYNPERONIC” NP8 until the liquid composition contained the required concentration of the compound. “SYNPERONIC” is a Registered Trade Mark.
The test procedure adopted with regard to each pest was basically the same and comprised supporting a number of the pests on a medium which was usually a substrate, a host plant or a foodstuff on which the pests feed, and treating either or both the medium and the pests with the compositions. The mortality of the pests was then assessed at periods usually varying from two to five days after the treatment.
In this test Chinese cabbage leaves were infested with aphids, the infested leaves were sprayed with the test composition, and the mortality assessed after 3 days.

Row | SMILES | Score (grading of mortality)
1 | CN1C2CCC1CC(C#N)(c1cnc(Cl)c(Cl)c1)C2 (stereo not drawn) [Compound 55, exo-3-(5,6-dichloropyrid-3-yl)-endo-3-cyano-8-methyl-8-azabicyclo[3.2.1]octane] | A (A indicates 80-100% mortality)
2 | C#CCN1C2CCC1CC(C#N)(c1cccnc1)C2 (centres unmarked) [Compound 56] | A (A indicates 80-100% mortality)
3 | CN1C2CCC1CC(C#N)(c1cccnc1)C2 (centres unmarked) [Compound 57] | A (A indicates 80-100% mortality)
4 | CC=CCN1C2CCC1CC(C#N)(c1cccnc1)C2 (centres unmarked) [Compound 58] | C (C indicates less than 40% mortality)
5 | N#CC1(c2cc(F)cc(F)c2)CC2CCC(C1)N2c1ccc([N+](=O)[O-])cc1 (centres unmarked) [Compound 59] | A (A indicates 80-100% mortality)
6 | CN1C2CCC1CC(C#N)(c1cncc(Cl)c1)C2 (stereo not drawn) [Compound 60, exo-3-(5-chloropyrid-3-yl)-endo-3-cyano-8-methyl-8-azabicyclo[3.2.1]octane] | A (A indicates 80-100% mortality)
7 | N#CC1(c2cccnc2)CC2CCC(C1)N2c1ccccc1 (centres unmarked) [Compound 61] | A (A indicates 80-100% mortality)
8 | CN1C2CCC1CC(C#N)(c1cnccn1)C2 (stereo not drawn) [Compound 62, exo-3-(pyrazin-2-yl)-endo-3-cyano-8-methyl-8-azabicyclo[3.2.1]octane] | A (A indicates 80-100% mortality)
9 | CN1C2CCC1CC(C#N)(c1cc(Cl)nc(Cl)n1)C2 (stereo not drawn) [Compound 63, exo-3-(2,6-dichloropyrimid-4-yl)-endo-3-cyano-8-methyl-8-azabicyclo[3.2.1]octane] | C (C indicates less than 40% mortality)
10 | N#CC1(c2cncc(Cl)c2)CC2CCC(C1)N2CCF (centres unmarked) [Compound 64] | A (A indicates 80-100% mortality)
11 | CN1C2CCC1CC(C#N)(c1cc(Cl)nc(Cl)c1)C2 (stereo not drawn) [Compound 65, exo-3-(2,6-dichloropyrid-4-yl)-endo-3-cyano-8-methyl-8-azabicyclo[3.2.1]octane] | C (C indicates less than 40% mortality)
12 | CN1[C@@H]2CC[C@H]1C[C@](C#N)(c1cc(Cl)nc(NN)c1)C2 [Compound 66, exo-3-(2-chloro-6-hydrazinopyrid-4-yl)-endo-3-cyano-8-methyl-8-azabicyclo[3.2.1]octane] | C (C indicates less than 40% mortality)
13 | CN1C2CCC1CC(C#N)(c1ccncc1)C2 (stereo not drawn) [Compound 67, exo-3-(pyrid-4-yl)-endo-3-cyano-8-methyl-8-azabicyclo[3.2.1]octane] | A (A indicates 80-100% mortality)
14 | CN1C2CCC1CC(C#N)(c1cncc(Br)c1)C2 (stereo not drawn) [Compound 68, exo-3-(5-bromopyrid-3-yl)-endo-3-cyano-8-methyl-8-azabicyclo[3.2.1]octane] | A (A indicates 80-100% mortality)
15 | C=COC(=O)N1[C@@H]2CC[C@H]1C[C@](C#N)(c1cncc(Cl)c1)C2 [Compound 69, exo-3-(5-chloropyrid-3-yl)-endo-3-cyano-8-(vinyloxycarbonyl)-8-azabicyclo[3.2.1]octane] | A (A indicates 80-100% mortality)
16 | N#CC1(c2cncc(Cl)c2)CC2CCC(C1)N2 (stereo not drawn) [Compound 70, exo-3-(5-chloropyrid-3-yl)-endo-3-cyano-8-azabicyclo[3.2.1]octane] | A (A indicates 80-100% mortality)
17 | CN1C2CCC1CC(C#N)(c1cccc(Cl)n1)C2 (centres unmarked) [Compound 71] | A (A indicates 80-100% mortality)
18 | N#C[C@@]1(c2cncc(Cl)c2)C[C@H]2CC[C@@H](C1)N2CC(F)(F)F [Compound 72, exo-3-(5-chloropyrid-3-yl)-endo-3-cyano-8-(2,2,2-trifluoroethyl)-8-azabicyclo[3.2.1]octane] | A (A indicates 80-100% mortality)
19 | N#CC1(c2cc(F)cc(F)c2)CC2CCC(C1)N2c1ccccn1 (centres unmarked) [Compound 73] | C (C indicates less than 40% mortality)
20 | N#CC1(c2cncc(Cl)c2)CC2CCC(C1)N2c1ccccc1 (centres unmarked) [Compound 74] | A (A indicates 80-100% mortality)
21 | C#CCN1C2CCC1CC(C#N)(c1cncc(Cl)c1)C2 (centres unmarked) [Compound 75] | A (A indicates 80-100% mortality)
22 | C=CCN1C2CCC1CC(C#N)(c1cncc(Cl)c1)C2 (stereo not drawn) [Compound 76, exo-3-(5-chloropyrid-3-yl)-endo-3-cyano-8-allyl-8-azabicyclo[3.2.1]octane] | A (A indicates 80-100% mortality)
23 | COc1cncc(C2(C#N)CC3CCC(C2)N3C)c1 (stereo not drawn) [Compound 77, exo-3-(5-methoxypyrid-3-yl)-endo-3-cyano-8-methyl-8-azabicyclo[3.2.1]octane] | A (A indicates 80-100% mortality)
24 | CCN1C2CCC1CC(C#N)(c1cncc(Cl)c1)C2 (centres unmarked) [Compound 78] | A (A indicates 80-100% mortality)
25 | CCCCN1C2CCC1CC(C#N)(c1cncc(Cl)c1)C2 (centres unmarked) [Compound 79] | A (A indicates 80-100% mortality)

Row | SMILES | Score (grading of mortality)
26 | COc1cncc(C2(C#N)CC3CCC(C2)N3C)c1 (centres unmarked) [Compound 80] | A (A indicates 80-100% mortality)
27 | CCCCCCN1C2CCC1CC(C#N)(c1cncc(Cl)c1)C2 (stereo not drawn) [Compound 81, exo-3-(5-chloropyrid-3-yl)-endo-3-cyano-8-(n-hexyl)-8-azabicyclo[3.2.1]octane] | A (A indicates 80-100% mortality)
28 | N#CC1(c2cncc(Cl)c2)CC2CCC(C1)N2C(=O)Oc1ccccc1 (centres unmarked) [Compound 82] | A (A indicates 80-100% mortality)
29 | N#CC1(c2cncc(Cl)c2)CC2CCC(C1)N2C(=O)OCC(Cl)(Cl)Cl (centres unmarked) [Compound 83] | A (A indicates 80-100% mortality)
30 | CCOC(=O)N1C2CCC1CC(C#N)(c1cncc(Cl)c1)C2 (centres unmarked) [Compound 84] | A (A indicates 80-100% mortality)
31 | N#CC1(c2cncc(Cl)c2)CC2CCC(C1)N2C(=O)OCC1c2ccccc2-c2ccccc21 (centres unmarked) [Compound 85] | A (A indicates 80-100% mortality)
32 | CCOC(=O)CN1C2CCC1CC(C#N)(c1cncc(Cl)c1)C2 (centres unmarked) [Compound 86] | A (A indicates 80-100% mortality)
33 | CC(C)N1C2CCC1CC(C#N)(c1cncc(Cl)c1)C2 (stereo not drawn) [Compound 87, exo-3-(5-chloropyrid-3-yl)-endo-3-cyano-8-isopropyl-8-azabicyclo[3.2.1]octane] | A (A indicates 80-100% mortality)
34 | N#CC1(c2cncc(Cl)c2)CC2CCC(C1)N2C=CC(=O)C(F)(F)F (stereo not drawn) [Compound 88, exo-3-(5-chloropyrid-3-yl)-endo-3-cyano-8-(3-oxo-4,4,4-trifluorobut-1-en-1-yl)-8-azabicyclo[3.2.1]octane] | A (A indicates 80-100% mortality)
35 | CC(OC(=O)N1C2CCC1CC(C#N)(c1cncc(Cl)c1)C2)C(Cl)(Cl)Cl (centres unmarked) [Compound 89] | C (C indicates less than 40% mortality)
36 | C=CCOC(=O)N1C2CCC1CC(C#N)(c1cncc(Cl)c1)C2 (centres unmarked) [Compound 90] | A (A indicates 80-100% mortality)
37 | N#CC1(c2cncc(Cl)c2)CC2CCC(C1)N2C(=O)OCc1ccccc1 (centres unmarked) [Compound 91] | A (A indicates 80-100% mortality)
38 | N#CC1(c2cncc(Cl)c2)CC2CCC(C1)N2C(=O)OCCCl (centres unmarked) [Compound 92] | A (A indicates 80-100% mortality)
39 | N#CC1(c2cncc(Cl)c2)CC2CCC(C1)N2Cc1c(F)c(F)c(F)c(F)c1F (stereo not drawn) [Compound 93, exo-3-(5-chloropyrid-3-yl)-endo-3-cyano-8-(pentafluorophenylmethyl)-8-azabicyclo[3.2.1]octane] | A (A indicates 80-100% mortality)
40 | N#CC1(c2cncc(Cl)c2)CC2CCC(C1)N2c1ccc([N+](=O)[O-])cc1 (centres unmarked) [Compound 94] | C (C indicates less than 40% mortality)
41 | CC(=O)N1C2CCC1CC(C#N)(c1cncc(Cl)c1)C2 (stereo not drawn) [Compound 95, exo-3-(5-chloropyrid-3-yl)-endo-3-cyano-8-acetyl-8-azabicyclo[3.2.1]octane] | A (A indicates 80-100% mortality)
42 | N#CC1(c2cncc(Cl)c2)CC2CCC(C1)N2C(=O)C(F)(F)F (centres unmarked) [Compound 96] | A (A indicates 80-100% mortality)
43 | N#CC1(c2cncc(Cl)c2)CC2CCC(C1)N2C(=O)c1ccc(Cl)cc1 (centres unmarked) [Compound 97] | C (C indicates less than 40% mortality)
44 | N#CC1(c2cncc(Cl)c2)CC2CCC(C1)N2C(=O)c1ccc(F)cc1 (centres unmarked) [Compound 98] | A (A indicates 80-100% mortality)
45 | N#CC1(c2cncc(Cl)c2)CC2CCC(C1)N2CCCF (centres unmarked) [Compound 99] | A (A indicates 80-100% mortality)
46 | N#CC1(c2cncc(Cl)c2)CC2CCC(C1)N2Cc1ccc(C(F)(F)F)cc1C(F)(F)F (centres unmarked) [Compound 100] | A (A indicates 80-100% mortality)
47 | N#CC1(c2cncc(Cl)c2)CC2CCC(C1)N2Cc1ccc(C(=O)O)cc1 (centres unmarked) [Compound 101] | A (A indicates 80-100% mortality)
48 | CC=COc1cncc(C2(C#N)CC3CCC(C2)N3C)c1 (centres unmarked) [Compound 102] | A (A indicates 80-100% mortality)
49 | N#CC1(c2cncc(Cl)c2)CC2CCC(C1)N2Cc1cccc(F)c1F (centres unmarked) [Compound 103] | A (A indicates 80-100% mortality)
50 | N#CC1(c2cncc(Cl)c2)CC2CCC(C1)N2CCc1ccccc1 (stereo not drawn) [Compound 104, exo-3-(5-chloropyrid-3-yl)-endo-3-cyano-8-(2-phenylethyl)-8-azabicyclo[3.2.1]octane] | A (A indicates 80-100% mortality)
